In this experiment the target is T1, human IsK protein (Homo sapiens, UniProt P15382).
T1 construct: only IsK injected, pore from oocyte's endogenous KCNQ1; two-microelectrode voltage clamp
Briefly: Inhibition of IsK current in Xenopus oocytes expressing human IsK protein (two-microelectrode voltage-clamp). Format: cell-based. As to conditions: human IsK expressed in Xenopus oocytes; activated to -10 mV, 15 s voltage jumps, room temperature; Hill equation.

T1 sequence (P70057 whole entry partner): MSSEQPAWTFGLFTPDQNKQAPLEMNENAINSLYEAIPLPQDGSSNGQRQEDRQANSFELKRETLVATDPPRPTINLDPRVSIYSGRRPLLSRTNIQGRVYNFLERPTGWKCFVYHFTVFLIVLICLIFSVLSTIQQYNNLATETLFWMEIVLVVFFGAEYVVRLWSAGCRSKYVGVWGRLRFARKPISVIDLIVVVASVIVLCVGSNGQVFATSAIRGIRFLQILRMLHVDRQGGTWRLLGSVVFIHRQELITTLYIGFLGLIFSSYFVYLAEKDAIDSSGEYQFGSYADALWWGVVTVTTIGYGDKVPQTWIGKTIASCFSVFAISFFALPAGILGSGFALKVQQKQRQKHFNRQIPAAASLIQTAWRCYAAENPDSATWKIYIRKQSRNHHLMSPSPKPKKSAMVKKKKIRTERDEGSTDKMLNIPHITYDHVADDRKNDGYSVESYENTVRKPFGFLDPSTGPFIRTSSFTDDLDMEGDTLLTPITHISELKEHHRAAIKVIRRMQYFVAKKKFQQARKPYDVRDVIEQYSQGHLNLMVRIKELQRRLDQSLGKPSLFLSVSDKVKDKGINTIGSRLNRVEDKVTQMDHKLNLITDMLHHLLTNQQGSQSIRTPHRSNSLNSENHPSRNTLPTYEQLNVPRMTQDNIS

By IC50 is commonly meant the concentration that inhibits the measured activity by half. Lower therefore signals greater potency in that assay. `CCOCCCOc1ccc2c(c1)C(N(CC)S(C)(=O)=O)CC(C)(C)O2` (stereo not drawn) [Example 1, N-[6-(3-Ethoxypropoxy)-2,2-dimethylchroman-4-yl]-N-ethyl-methanesulfonamide] yielded an IC50 of 430 nM.
For `CCN(C1CC(C)(C)Oc2ccc(OCCCCCO)cc21)S(C)(=O)=O` (stereo not drawn) [Example 2, N-Ethyl-N-[6-(5-hydroxypentyloxy)-2,2-dimethylchroman-4-yl]methanesulfonamide], the IC50 amounted to 1710 nM. Against the preceding molecule, the IC50 is about 4-fold higher.
The figure for `CCN(C1CC(C)(C)Oc2ccc(OCCCCC(=O)NCCOC)cc21)S(C)(=O)=O` (stereo not drawn) [Example 3, 5-[4-(Ethylmethanesulfonylamino)-2,2-dimethylchroman-6-yloxy]pentanoic acid (2-methoxyethyl)amide] is 6360 nM; for `CCN(C1CC(C)(C)Oc2ccc(OCCO)cc21)S(C)(=O)=O` (stereo not drawn) [Example 8, N-Ethyl-N-[6-(2-hydroxyethoxy)-2,2-dimethylchroman-4-yi]-methanesulfonamide] it is 7430 nM; for `CCOCCOc1ccc2c(c1)C(N(CC)S(C)(=O)=O)CC(C)(C)O2` (stereo not drawn) [Example 9, N-[6-(2-Ethoxyethoxy)-2,2-dimethylchroman-4-yl]-N-ethylmethanesulfonamide] it is 690 nM.
Take `CCN(C1CC(C)(C)Oc2ccc(OCc3cc(OC)ccn3)cc21)S(C)(=O)=O` (stereo not drawn) [Example 10, N-Ethyl--N-[6-(((4-methoxypyridin-2-yl)methyl)oxy)-2,2-dimethylchroman-4-yl]methanesulfonamide]: the IC50 was approximately 8000 nM.
With `CCOCCCOc1ccc2c(c1)C(N(C)S(C)(=O)=O)CC(C)(C)O2` (stereo not drawn) [Example 15, N-[6-(3-Ethoxypropoxy)-2,2-dimethylchroman-4-yl]-N-methylmethanesulfonamide], the IC50 was 320 nM.
As to `CCOCCOc1ccc2c(c1)C(N(CCOC)S(C)(=O)=O)CC(C)(C)O2` (stereo not drawn) [Example 17, N-[6-(2-Ethoxyethoxy)-2,2-dimethylchroman-4-yl]-N-(2-methoxyethyl)methanesulfonamide], the IC50 was approximately 1000 nM.
`CCOCCCOc1ccc2c(c1)C(N(CCOC)S(C)(=O)=O)CC(C)(C)O2` (stereo not drawn) [Example 21, N-[6-(3-Ethoxypropoxy)-2,2-dimethylchroman-4-yl]-N-(2-methoxyethyl)methanesulfonamide] displayed an IC50 of 1740 nM.
`CCCN(C1CC(C)(C)Oc2ccc(OCC(=O)NCCOC)cc21)S(=O)(=O)CC` (stereo not drawn) [Example 22, 2-[4-(Ethanesulfonyl-(1-propyl)amino)-2,2-dimethylchroman-6-yloxy]-N-(2-methoxyethyl)acetamide] showed an IC50 of approximately 3000 nM.
With `CCCN(C1CC(C)(C)Oc2ccc(OCC(=O)NCCCOCC)cc21)S(=O)(=O)CC` (stereo not drawn) [Example 23, 2-[4-(Ethanesulfonyl-(1-propyl)amino)-2,2-dimethylchroman-6-yloxy]-N-(3-ethoxypropyl)acetamide], the IC50 amounted to 2490 nM.
`CCS(=O)(=O)N(C)C1CC(C)(C)Oc2ccc(-c3cccs3)cc21` (stereo not drawn) [Example 26, Ethanesulfonic acid (2,2-dimethyl-6-thiophen-2-yl-chroman-4-yl)methylamide] gave an IC50 of 380 nM. This IC50 is about 6.6-fold lower than that of the molecule before.

The values above are taken from US6177449A, “Sulfonamide-substituted chromans, processes for their preparation, their use as a medicament or diagnostic, and pharmaceutical preparations comprising them” (Aventis Pharma Deutschland GmbH, priority 1997, dated 2001).
